IC90 and EC50 data for 19 compounds are collected here from patent publication US20240228488A1 (TAKEDA PHARMACEUTICAL COMPANY LIMITED, priority 2021, published 2024).

Assay [1] concerns the target T1, plasma kallikrein (Homo sapiens, UniProt P03952).
T1 construct: from tissue
The assay is described as follows: Neat human plasma assay, FXIIa contact pathway-activated, PFR-AMC substrate. Particulars: citrated human plasma 78% final, 10 nM human FXIIa, 100 μM PFR-AMC; read-out: Human Plasma Assay: IC90. In kind it is biochemical. In short, it runs like this: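 Compound inhibition of plasma kallikrein measured as PFR-AMC (100 μM) cleavage rate over 5 min at room temperature in 78% citrated human plasma activated with 10 nM FXIIa (Tris pH 7.5 buffer). IC50/IC90 from 4-parameter fit of rate versus inhibitor concentration.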

Assay [2] concerns the target human activated kallikrein enzyme (Homo sapiens, UniProt P03952). The assay is described as follows: Plasma kallikrein inhibition, fluorogenic PFR-AMC substrate, 500 pM activated kallikrein format. The following applies: 500 pM activated kallikrein, 300 uM PFR-AMC, 30 min preincubation, 10 min reaction; read-out: Primary Dose Response Assay: Average EC50. In kind it is biochemical. In a few lines:
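Fluorogenic readout (ex 380 / em 460 nm) after 10 min room-temperature reaction with 300 uM Pro-Phe-Arg-AMC substrate, following 30 min preincubation of inhibitors with 500 pM enzyme. Buffer: Tris pH 7.5, EDTA, NaCl, PEG-400, Triton X-100. Values given as EC50 ranges.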

T1 sequence (P03952 391-638 limits assumed): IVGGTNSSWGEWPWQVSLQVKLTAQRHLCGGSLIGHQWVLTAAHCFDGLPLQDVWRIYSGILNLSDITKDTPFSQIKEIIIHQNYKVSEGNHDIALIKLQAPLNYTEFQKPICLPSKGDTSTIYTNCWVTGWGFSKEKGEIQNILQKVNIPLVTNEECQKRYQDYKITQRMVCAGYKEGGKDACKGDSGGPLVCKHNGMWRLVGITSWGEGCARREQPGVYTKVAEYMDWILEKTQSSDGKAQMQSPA
T1 sequence (P03952 20-390 partner limits assumed): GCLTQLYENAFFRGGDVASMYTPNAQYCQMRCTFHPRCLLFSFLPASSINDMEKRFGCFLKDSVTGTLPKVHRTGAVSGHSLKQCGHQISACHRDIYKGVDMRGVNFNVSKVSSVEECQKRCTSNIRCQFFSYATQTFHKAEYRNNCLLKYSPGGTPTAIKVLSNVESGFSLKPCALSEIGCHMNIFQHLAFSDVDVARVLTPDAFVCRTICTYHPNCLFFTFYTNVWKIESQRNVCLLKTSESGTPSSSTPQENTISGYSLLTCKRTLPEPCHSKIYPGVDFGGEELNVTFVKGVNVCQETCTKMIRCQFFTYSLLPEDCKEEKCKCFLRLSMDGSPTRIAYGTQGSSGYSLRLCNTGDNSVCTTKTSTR
Chain of human activated kallikrein enzyme (P03952 391-638 limits assumed): as the sequence (P03952 391-638 limits assumed) above
Chain of human activated kallikrein enzyme (P03952 20-390 partner limits assumed): as the sequence (P03952 20-390 partner limits assumed) above

Turning to `CC(C)(O)c1cc(C2CC2)cn2cc(CNc3cc(NC(=O)[C@H]4C[C@@H]4c4cc(Cl)ccc4C#N)ncn3)nc12` (racemic) [Example 337, (rac-(1S*,2S*))-2-(5-chloro-2-cyanophenyl)-N-(6-(((6-cyclopropyl-8-(2-hydroxypropan-2-yl)imidazo[1,2-a]pyridin-2-yl)methyl)amino)pyrimidin-4-yl)cyclopropane-1-carboxamide], the IC90 in assay [1] was in the range of 10000 to 48000 nM. Besides, the concentration for a half-maximal effect (EC50) in assay [2] was in the range of 1 to 10 nM.
Take `Cc1ccnc([C@H]2C[C@@H]2C(=O)Nc2cc(NCc3cn4cc(C5(F)CC5)cc(N5CC(=O)N(C)C5=O)c4n3)ncn2)n1` [Example 374, (1S,2S)-N-(6-(((6-(1-fluorocyclopropyl)-8-(3-methyl-2,4-dioxoimidazolidin-1-yl)imidazo[1,2-a]pyridin-2-yl)methyl)amino)pyrimidin-4-yl)-2-(4-methylpyrimidin-2-yl)cyclopropane-1-carboxamide]: the IC90 in assay [1] is less than 400 nM. Besides, the EC50 in assay [2] is less than 1 nM.
Take `Cc1ccnc([C@H]2C[C@@H]2C(=O)Nc2cc(N3C[C@@H](O)C[C@@H]3c3cn4cc(C5CC5)cc(N5CC6CC6C5=O)c4n3)ncn2)n1` (relative stereo) [Example 482, rac-(1S*,2S*)—N-(6-((2R,4S)-2-(6-cyclopropyl-8-(2-oxo-3-azabicyclo[3.1.0]hexan-3-yl)imidazo[1,2-a]pyridin-2-yl)-4-hydroxypyrrolidin-1-yl)pyrimidin-4-yl)-2-(4-methylpyrimidin-2-yl)cyclopropane-1-carboxamide]: the IC90 in assay [1] lay in the range of 400 to 1500 nM. For the same compound, in assay [2], the 50% effective concentration (EC50) is less than 1 nM.
Turning to `CN1C(=O)CN(c2cc(C3CC3)cn3cc([C@H]4C[C@H](O)CN4c4cc(NC(=O)[C@H]5C[C@@H]5c5cc(Cl)ccn5)ncn4)nc23)C1=O` [Example 478, (1S,2S)-2-(4-chloropyridin-2-yl)-N-(6-((2R,4S)-2-(6-cyclopropyl-8-(3-methyl-2,4-dioxoimidazolidin-1-yl)imidazo[1,2-a]pyridin-2-yl)-4-hydroxypyrrolidin-1-yl)pyrimidin-4-yl)cyclopropane-1-carboxamide], the IC90 in assay [1] lay within 400 to 1500 nM. Also, the EC50 in assay [2] was less than 1 nM.
For `Cc1ccnc([C@H]2C[C@@H]2C(=O)Nc2cc(NCc3cn4cc(C5CC5)cc(N5CCOC5=O)c4n3)ncn2)n1` [Example 376, (1S,2S)-N-(6-(((6-cyclopropyl-8-(2-oxooxazolidin-3-yl)imidazo[1,2-a]pyridin-2-yl)methyl)amino)pyrimidin-4-yl)-2-(4-methylpyrimidin-2-yl)cyclopropane-1-carboxamide] the same measures were less than 400 nM and less than 1 nM.
In the case of `Cc1nc([C@H]2C[C@@H]2C(=O)Nc2cc(NCc3cn4cc(C5CC5)cc(N5CC(=O)N(C)C5=O)c4n3)ncn2)ncc1F` (racemic) [Example 489, rac-(1S*,2S*)—N-(6-(((6-cyclopropyl-8-(3-methyl-2,4-dioxoimidazolidin-1-yl)imidazo[1,2-a]pyridin-2-yl)methyl)amino)pyrimidin-4-yl)-2-(5-fluoro-4-methylpyrimidin-2-yl)cyclopropane-1-carboxamide], in assay [1], the IC90 is 400 to 1500 nM. For the same compound, the EC50 in assay [2] was less than 1 nM.
With `O=C(Nc1cc(NCc2cn3cc(C4CC4)cc(C4(F)COC4)c3n2)ncn1)[C@H]1C[C@@H]1c1cccc(Cl)c1` (racemic) [Example 64, rac-(1S*,2S*)-2-(3-chlorophenyl)-N-(6-(((6-cyclopropyl-8-(3-fluorooxetan-3-yl)imidazo[1,2-α]pyridin-2-yl)methyl)amino)pyrimidin-4-yl)cyclopropane-1-carboxamide], in assay [1], the IC90 was greater than 48000 nM. For the same compound, in assay [2], the EC50 is 1 to 10 nM.
On to `Cc1ccnc([C@H]2C[C@@H]2C(=O)Nc2cc(NCc3cn4cc(C5CC5)cc(N5CC(=O)N(C)C5=O)c4n3)cnn2)n1` (racemic) [Example 617, rac-(1S*,2S*)—N-(5-(((6-cyclopropyl-8-(3-methyl-2,4-dioxoimidazolidin-1-yl)imidazo[1,2-a]pyridin-2-yl)methyl)amino)pyridazin-3-yl)-2-(4-methylpyrimidin-2-yl)cyclopropane-1-carboxamide], for which the IC90 in assay [1] is less than 400 nM. In addition, in assay [2], the EC50 was less than 1 nM.
As to `N#Cc1cc(C2CC2)cn2cc(CNc3cc(NC(=O)[C@H]4C[C@@H]4c4cccc(Cl)c4)ncn3)nc12` (racemic) [Example 71, rac-(1S*,2S*)-2-(3-chlorophenyl)-N-(6-(((8-cyano-6-cyclopropylimidazo[1,2-a]pyridin-2-yl)methyl)amino)pyrimidin-4-yl)cyclopropane-1-carboxamide], in assay [1], the IC90 lay in the range of 10000 to 48000 nM. The EC50 in assay [2] lay in the range of 1 to 10 nM.
Take `Cc1ccnc([C@H]2C[C@@H]2C(=O)Nc2cc(NCc3cn4cc(C5CC5)cc(N5CC(=O)N(CC(=O)O)C5=O)c4n3)ncn2)n1` [Example 465]: the IC90 in assay [1] is 400 to 1500 nM. In addition, the EC50 in assay [2] was less than 1 nM.
For `CN1CCN(c2cc(C3CC3)cn3cc(CNc4ccnc(NC(=O)[C@H]5C[C@@H]5c5cccc(Cl)c5)n4)nc23)CC1` [Example 88, (1S,2S)-2-(3-chlorophenyl)-N-(4-(((6-cyclopropyl-8-(4-methylpiperazin-1-yl)imidazo[1,2-a]pyridin-2-yl)methyl)amino)pyrimidin-2-yl)cyclopropane-1-carboxamide] the same measures were 400 to 1500 nM and less than 1 nM.
Take `O=C(Nc1cc(N2C[C@@H](O)C[C@@H]2c2cn3cc(C4CC4)ccc3n2)ncn1)[C@H]1C[C@@H]1c1nccc(Cl)n1` (relative stereo) [Example 481, rac-(1S*,2S*)-2-(4-chloropyrimidin-2-yl)-N-(6-((2R,4S)-2-(6-cyclopropylimidazo[1,2-a]pyridin-2-yl)-4-hydroxypyrrolidin-1-yl)pyrimidin-4-yl)cyclopropane-1-carboxamide]: the IC90 in assay [1] was in the range of 1500 to 10000 nM. In assay [2], the EC50 is less than 1 nM.
Turning to `Cc1ccnc([C@H]2C[C@@H]2C(=O)Nc2cc(NCc3cn4cc(C5CC5)cc(N5CC(=O)N(C)C5=O)c4n3)ccn2)n1` (racemic) [Example I-208, rac-(1S*,2S*)-N-(4-(((6-cyclopropyl-8-(3-methyl-2,4-dioxoimidazolidin-1-yl)imidazo[1,2-a]pyridin-2-yl)methyl)amino)pyridin-2-yl)-2-(4-methylpyrimidin-2-yl)cyclopropane-1-carboxamide], the IC90 in assay [1] was less than 400 nM. Moreover, the EC50 in assay [2] was less than 1 nM.
The corresponding values for `CN1CCN(c2cc(C3CC3)cn3cc(CNc4nccc(NC(=O)[C@H]5C[C@@H]5c5cccc(Cl)c5)n4)nc23)CC1` [Example 613, (1S,2S)-2-(3-chlorophenyl)-N-(2-(((6-cyclopropyl-8-(4-methylpiperazin-1-yl)imidazo[1,2-a]pyridin-2-yl)methyl)amino)pyrimidin-4-yl)cyclopropane-1-carboxamide] are 400 to 1500 nM and 1 to 10 nM.
As for `O=C(Nc1cc(NCc2cn3cc(C4CC4)cc(N4CC5(C4)CN(C4CC4)C5)c3n2)ccn1)[C@H]1C[C@@H]1c1cccc(Cl)c1` [Example I-24, (1S,2S)-2-(3-chlorophenyl)-N-(4-(((6-cyclopropyl-8-(6-cyclopropyl-2,6-diazaspiro[3.3]heptan-2-yl)imidazo[1,2-a]pyridin-2-yl)methyl)amino)pyridin-2-yl)cyclopropane-1-carboxamide], the IC90 in assay [1] was in the range of 1500 to 10000 nM. The EC50 in assay [2] was less than 1 nM.
As to `Cc1ccnc([C@H]2C[C@@H]2C(=O)Nc2cc(OCc3cn4cc(C5CC5)cc(N5CC(=O)N(C)C5=O)c4n3)cnn2)n1` [Example 558, (1S,2S)-N-(5-((6-cyclopropyl-8-(3-methyl-2,4-dioxoimidazolidin-1-yl)imidazo[1,2-a]pyridin-2-yl)methoxy)pyridazin-3-yl)-2-(4-methylpyrimidin-2-yl)cyclopropane-1-carboxamide], in assay [1], the IC90 was less than 400 nM. Also, the EC50 in assay [2] was less than 1 nM.
In the case of `Cc1ccnc([C@H]2C[C@@H]2C(=O)Nc2cc(N[C@H](C)c3cn4cc(C5CC5)cc(N5CC(=O)N(C)C5=O)c4n3)nc(OCCN(C)C)n2)n1` [Example 276, (1S,2S)—N-(6-(((R)-1-(6-cyclopropyl-8-(3-methyl-2,4-dioxoimidazolidin-1-yl)imidazo[1,2-a]pyridin-2-yl)ethyl)amino)-2-(2-(dimethylamino)ethoxy)pyrimidin-4-yl)-2-(4-methylpyrimidin-2-yl)cyclopropane-1-carboxamide], the IC90 in assay [1] is less than 400 nM. In assay [2], the EC50 was less than 1 nM.
The corresponding values for `Cc1ccnc([C@H]2C[C@@H]2C(=O)Nc2cc(N(C)Cc3cn4cc(C5CC5)cc(N5CC(=O)N(CCO)C5=O)c4n3)cc(C3CC3)n2)n1` [Example I-637, (1S,2S)—N-(6-cyclopropyl-4-(((6-cyclopropyl-8-(3-(2-hydroxyethyl)-2,4-dioxoimidazolidin-1-yl)imidazo[1,2-a]pyridin-2-yl)methyl)(methyl)amino)pyridin-2-yl)-2-(4-methylpyrimidin-2-yl)cyclopropane-1-carboxamide] are less than 400 nM and less than 1 nM.
Take `Cc1ccnc([C@H]2C[C@@H]2C(=O)Nc2cc(N(C)Cc3cn4cc(C5CC5)cc(N5CC(=O)N(CC(C)(C)O)C5=O)c4n3)ncn2)n1` [Example 368, (1S,2S)-N-(6-(((6-cyclopropyl-8-(3-(2-hydroxy-2-methylpropyl)-2,4-dioxoimidazolidin-1-yl)imidazo[1,2-a]pyridin-2-yl)methyl)(methyl)amino)pyrimidin-4-yl)-2-(4-methylpyrimidin-2-yl)cyclopropane-1-carboxamide]: in assay [1], the IC90 is less than 400 nM. The EC50 in assay [2] is less than 1 nM.

The term IC90 denotes the concentration needed for an effect of 90%. As a reminder, the EC50 is the midpoint of the concentration-response curve.
